Measured values from ChEMBL document CHEMBL1697692, “Developing structure-activity relationships for the prediction of hepatotoxicity” (Chem Res Toxicol, 2010).

test system: Hepatotoxicity; experiment: Literature-mined public compounds from Greene et al multi-species hepatotoxicity modelling dataset

Q: How did the Hepatotoxicity turn out when `CS(=O)(=O)O.Cc1ccc(N(CC2=NCCN2)c2cccc(O)c2)cc1` [PHENTOLAMINE MESYLATE] was run?
A: HH: Evidence of human hepatotoxicity

Q: For `S=C=Nc1ccccc1` [PHENYLISOTHIOCYANATE], which Hepatotoxicity is on record?
A: AH: Evidence for animal hepatotoxicity but not tested in humans

Q: Which Hepatotoxicity does the source give for `CC(N)C(O)c1ccccc1.Cl` (stereo not drawn) [PHENYLPROPANOLAMINE HYDROCHLORIDE] here?
A: NE: No evidence of hepatotoxicity in any species

Q: `O=C1NC(=O)C(c2ccccc2)(c2ccccc2)N1` [PHENYTOIN] was tested. Which Hepatotoxicity did it give?
A: HH: Evidence of human hepatotoxicity

Q: `CNC(=O)Oc1ccc2c(c1)[C@]1(C)CCN(C)[C@@H]1N2C` [PHYSOSTIGMINE] was tested. Which Hepatotoxicity did it give?
A: NE: No evidence of hepatotoxicity in any species

Q: For `CC[C@@H]1C(=O)OC[C@@H]1Cc1cncn1C` [PILOCARPINE], which Hepatotoxicity is on record?
A: NE: No evidence of hepatotoxicity in any species

Q: How did the Hepatotoxicity turn out when `O=c1[nH]c2ccccc2n1C1CCN(CCCC(c2ccc(F)cc2)c2ccc(F)cc2)CC1` [PIMOZIDE] was run?
A: NE: No evidence of hepatotoxicity in any species

Q: How did the Hepatotoxicity turn out when `CC(N/C(=N\C#N)Nc1ccncc1)C(C)(C)C` (stereo not drawn) [PINACIDIL ANHYDROUS] was run?
A: NE: No evidence of hepatotoxicity in any species

Q: `CC(C)NCC(O)COc1cccc2[nH]ccc12` (stereo not drawn) [PINDOLOL] was tested. Which Hepatotoxicity did it give?
A: NE: No evidence of hepatotoxicity in any species

Q: For `CCc1ccc(CCOc2ccc(CC3SC(=O)NC3=O)cc2)nc1` (stereo not drawn) [PIOGLITAZONE], which Hepatotoxicity is on record?
A: WE: Weak evidence (<10 case reports) of human hepatotoxicity

Q: Which Hepatotoxicity does the source give for `Cc1cccc(Nc2cc(Cl)nc(SCC(=O)O)n2)c1C` [PIRINIXIC ACID] here?
A: AH: Evidence for animal hepatotoxicity but not tested in humans

Q: With `CN1C(C(=O)Nc2ccccn2)=C(O)c2ccccc2S1(=O)=O` [PIROXICAM] as the compound, how does the Hepatotoxicity read?
A: HH: Evidence of human hepatotoxicity

Q: For `CC(C(=O)O)c1ccc(N2CC=CC2)c(Cl)c1` (stereo not drawn) [PIRPROFEN], which Hepatotoxicity is on record?
A: HH: Evidence of human hepatotoxicity

Q: With `C[C@]12C=CC(=O)C=C1CC[C@@H]1[C@@H]2C(=O)C[C@@]2(C)[C@H]1CC[C@]2(O)C(=O)CO` [PREDNISONE] as the compound, how does the Hepatotoxicity read?
A: WE: Weak evidence (<10 case reports) of human hepatotoxicity

Q: How did the Hepatotoxicity turn out when `CC(=O)[C@H]1[C@H](C#N)C[C@H]2[C@@H]3CC=C4C[C@@H](O)CC[C@]4(C)[C@H]3CC[C@@]21C` [PREGNENOLONE CARBONITRILE] was run?
A: AH: Evidence for animal hepatotoxicity but not tested in humans

Q: How did the Hepatotoxicity turn out when `COc1cc(NC(C)CCCN)c2ncccc2c1.O=P(O)(O)O.O=P(O)(O)O` (stereo not drawn) [PRIMAQUINE PHOSPHATE] was run?
A: WE: Weak evidence (<10 case reports) of human hepatotoxicity

Q: How did the Hepatotoxicity turn out when `CCC1(c2ccccc2)C(=O)NCNC1=O` [PRIMIDONE] was run?
A: NE: No evidence of hepatotoxicity in any species

Q: With `CCCN(CCC)S(=O)(=O)c1ccc(C(=O)O)cc1` [PROBENECID] as the compound, how does the Hepatotoxicity read?
A: WE: Weak evidence (<10 case reports) of human hepatotoxicity

Q: With `CC(C)(Sc1cc(C(C)(C)C)c(O)c(C(C)(C)C)c1)Sc1cc(C(C)(C)C)c(O)c(C(C)(C)C)c1` [PROBUCOL] as the compound, how does the Hepatotoxicity read?
A: NE: No evidence of hepatotoxicity in any species

Q: For `CNNCc1ccc(C(=O)NC(C)C)cc1.Cl` [PROCARBAZINE HYDROCHLORIDE], which Hepatotoxicity is on record?
A: HH: Evidence of human hepatotoxicity

Q: How did the Hepatotoxicity turn out when `CN1CCN(CCCN2c3ccccc3Sc3ccc(Cl)cc32)CC1.O=C(O)/C=C\C(=O)O.O=C(O)/C=C\C(=O)O` [PROCHLORPERAZINE MALEATE] was run?
A: HH: Evidence of human hepatotoxicity

Q: Which Hepatotoxicity does the source give for `CC(=O)[C@H]1CC[C@H]2[C@@H]3CCC4=CC(=O)CC[C@]4(C)[C@H]3CC[C@]12C` [PROGESTERONE] here?
A: HH: Evidence of human hepatotoxicity

Q: For `CN(C)CCCN1c2ccccc2Sc2ccccc21.Cl` [PROMAZINE HYDROCHLORIDE], which Hepatotoxicity is on record?
A: WE: Weak evidence (<10 case reports) of human hepatotoxicity

Q: `CC(CN1c2ccccc2Sc2ccccc21)N(C)C.Cl` (stereo not drawn) [PROMETHAZINE HYDROCHLORIDE] was tested. Which Hepatotoxicity did it give?
A: NE: No evidence of hepatotoxicity in any species

Q: For `CC(C)c1cccc(C(C)C)c1O` [PROPOFOL], which Hepatotoxicity is on record?
A: NE: No evidence of hepatotoxicity in any species

Q: For `CC(C)NCC(O)COc1cccc2ccccc12` (stereo not drawn) [PROPRANOLOL], which Hepatotoxicity is on record?
A: NE: No evidence of hepatotoxicity in any species

Q: `CN[C@@H](C)[C@@H](O)c1ccccc1.Cl` [PSEUDOEPHEDRINE HYDROCHLORIDE] was tested. Which Hepatotoxicity did it give?
A: NE: No evidence of hepatotoxicity in any species

Q: With `COc1ccc(C[C@H](N)C(=O)N[C@H]2[C@@H](O)[C@H](n3cnc4c(N(C)C)ncnc43)O[C@@H]2CO)cc1` [PUROMYCIN] as the compound, how does the Hepatotoxicity read?
A: AH: Evidence for animal hepatotoxicity but not tested in humans

Q: For `NC(=O)c1cnccn1` [PYRAZINAMIDE], which Hepatotoxicity is on record?
A: HH: Evidence of human hepatotoxicity

Q: How did the Hepatotoxicity turn out when `CN(C)C(=O)Oc1ccc[n+](C)c1.[Br-]` [PYRIDOSTIGMINE BROMIDE] was run?
A: NE: No evidence of hepatotoxicity in any species

Q: For `Cc1ncc(CO)c(CO)c1O` [PYRIDOXINE], which Hepatotoxicity is on record?
A: NE: No evidence of hepatotoxicity in any species

Q: Which Hepatotoxicity does the source give for `CCc1nc(N)nc(N)c1-c1ccc(Cl)cc1` [PYRIMETHAMINE] here?
A: HH: Evidence of human hepatotoxicity

Q: Which Hepatotoxicity does the source give for `C=C[C@H]1C[N@@]2CC[C@H]1C[C@@H]2[C@@H](O)c1ccnc2ccc(OC)cc12` [QUINIDINE] here?
A: HH: Evidence of human hepatotoxicity

Q: How did the Hepatotoxicity turn out when `C=C[C@H]1CN2CC[C@H]1C[C@H]2[C@H](O)c1ccnc2ccc(OC)cc12.C=C[C@H]1CN2CC[C@H]1C[C@H]2[C@H](O)c1ccnc2ccc(OC)cc12.O.O.O=S(=O)(O)O` [QUININE SULFATE] was run?
A: HH: Evidence of human hepatotoxicity

Q: `C=C[C@H]1C[N@@]2CC[C@H]1C[C@H]2[C@H](O)c1ccnc2ccc(OC)cc12` [QUININE] was tested. Which Hepatotoxicity did it give?
A: HH: Evidence of human hepatotoxicity

Q: How did the Hepatotoxicity turn out when `CCO[C@@H](Cc1ccc(OCCN2c3ccccc3Oc3ccccc32)cc1)C(=O)O` [RAGAGLITAZAR] was run?
A: NE: No evidence of hepatotoxicity in any species

Q: With `O=C(c1ccc(OCCN2CCCCC2)cc1)c1c(-c2ccc(O)cc2)sc2cc(O)ccc12` [RALOXIFENE] as the compound, how does the Hepatotoxicity read?
A: WE: Weak evidence (<10 case reports) of human hepatotoxicity

Q: `CNC(=C[N+](=O)[O-])NCCSCc1ccc(CN(C)C)o1` [RANITIDINE] was tested. Which Hepatotoxicity did it give?
A: WE: Weak evidence (<10 case reports) of human hepatotoxicity

Q: How did the Hepatotoxicity turn out when `NC(=O)c1ncn([C@@H]2O[C@H](CO)[C@@H](O)[C@H]2O)n1` [RIBAVIRIN] was run?
A: WE: Weak evidence (<10 case reports) of human hepatotoxicity

Q: How did the Hepatotoxicity turn out when `CO[C@H]1/C=C/O[C@@]2(C)Oc3c(C)c(O)c4c(c3C2=O)C2=NC3(CCN(CC(C)C)CC3)NC2=C(NC(=O)/C(C)=C\C=C\[C@H](C)[C@H](O)[C@@H](C)[C@@H](O)[C@@H](C)[C@H](OC(C)=O)[C@@H]1C)C4=O` [RIFABUTIN] was run?
A: HH: Evidence of human hepatotoxicity

Q: With `CO[C@H]1/C=C/O[C@@]2(C)Oc3c(C)c(O)c4c(O)c(c(/C=N/N5CCN(C)CC5)c(O)c4c3C2=O)NC(=O)/C(C)=C\C=C\[C@H](C)[C@H](O)[C@@H](C)[C@@H](O)[C@@H](C)[C@H](OC(C)=O)[C@@H]1C` [RIFAMPIN] as the compound, how does the Hepatotoxicity read?
A: WE: Weak evidence (<10 case reports) of human hepatotoxicity

Q: With `Nc1nc2ccc(OC(F)(F)F)cc2s1` [RILUZOLE] as the compound, how does the Hepatotoxicity read?
A: HH: Evidence of human hepatotoxicity

Q: Which Hepatotoxicity does the source give for `Cc1nc2n(c(=O)c1CCN1CCC(c3noc4cc(F)ccc34)CC1)CCCC2` [RISPERIDONE] here?
A: HH: Evidence of human hepatotoxicity

Q: Which Hepatotoxicity does the source give for `CC(C)c1nc(CN(C)C(=O)N[C@H](C(=O)N[C@@H](Cc2ccccc2)C[C@H](O)[C@H](Cc2ccccc2)NC(=O)OCc2cncs2)C(C)C)cs1` [RITONAVIR] here?
A: HH: Evidence of human hepatotoxicity

Q: With `CN(CCOc1ccc(CC2SC(=O)NC2=O)cc1)c1ccccn1` (stereo not drawn) [ROSIGLITAZONE] as the compound, how does the Hepatotoxicity read?
A: WE: Weak evidence (<10 case reports) of human hepatotoxicity

Q: Which Hepatotoxicity does the source give for `C=C(C)[C@H]1Cc2c(ccc3c2O[C@@H]2COc4cc(OC)c(OC)cc4[C@@H]2C3=O)O1` [ROTENONE] here?
A: AH: Evidence for animal hepatotoxicity but not tested in humans

Q: `CC(C)(C)NC(=O)[C@@H]1C[C@@H]2CCCC[C@@H]2CN1C[C@@H](O)[C@H](Cc1ccccc1)NC(=O)[C@H](CC(N)=O)NC(=O)c1ccc2ccccc2n1.CS(=O)(=O)O` [SAQUINAVIR MESYLATE] was tested. Which Hepatotoxicity did it give?
A: HH: Evidence of human hepatotoxicity

Q: With `CN[C@H]1CC[C@@H](c2ccc(Cl)c(Cl)c2)c2ccccc21` [SERTRALINE] as the compound, how does the Hepatotoxicity read?
A: WE: Weak evidence (<10 case reports) of human hepatotoxicity

Q: With `O=C([O-])O.[Na+]` [SODIUM BICARBONATE] as the compound, how does the Hepatotoxicity read?
A: AH: Evidence for animal hepatotoxicity but not tested in humans

Q: With `[Cl-].[Na+]` [SODIUM CHLORIDE] as the compound, how does the Hepatotoxicity read?
A: NE: No evidence of hepatotoxicity in any species

Q: With `OC[C@@H](O)[C@@H](O)[C@H](O)[C@@H](O)CO` [SORBITOL] as the compound, how does the Hepatotoxicity read?
A: NE: No evidence of hepatotoxicity in any species

Q: Which Hepatotoxicity does the source give for `CC(=O)S[C@@H]1CC2=CC(=O)CC[C@]2(C)[C@H]2CC[C@@]3(C)[C@@H](CC[C@@]34CCC(=O)O4)[C@H]12` [SPIRONOLACTONE] here?
A: HH: Evidence of human hepatotoxicity

Q: `Cc1cn([C@H]2C=C[C@@H](CO)O2)c(=O)[nH]c1=O` [STAVUDINE] was tested. Which Hepatotoxicity did it give?
A: HH: Evidence of human hepatotoxicity

Q: With `CN[C@@H]1[C@H](O[C@H]2[C@H](O[C@H]3[C@H](O)[C@@H](O)[C@H](N=C(N)N)[C@@H](O)[C@@H]3N=C(N)N)O[C@@H](C)[C@]2(O)C=O)O[C@@H](CO)[C@H](O)[C@H]1O.CN[C@@H]1[C@H](O[C@H]2[C@H](O[C@H]3[C@H](O)[C@@H](O)[C@H](N=C(N)N)[C@@H](O)[C@@H]3N=C(N)N)O[C@@H](C)[C@]2(O)C=O)O[C@@H](CO)[C@H](O)[C@H]1O.O=S(=O)(O)O.O=S(=O)(O)O.O=S(=O)(O)O` [STREPTOMYCIN SULFATE] as the compound, how does the Hepatotoxicity read?
A: NE: No evidence of hepatotoxicity in any species

Q: With `[H]/N=C(/N)N[C@H]1[C@H](O)[C@@H](O)[C@H](O[C@@H]2O[C@@H](C)[C@](O)(C=O)[C@H]2O[C@@H]2O[C@@H](CO)[C@H](O)[C@@H](O)[C@@H]2NC)[C@@H](N/C(N)=N\[H])[C@@H]1O` [STREPTOMYCIN] as the compound, how does the Hepatotoxicity read?
A: NE: No evidence of hepatotoxicity in any species

Q: Which Hepatotoxicity does the source give for `CN(N=O)C(=O)N[C@@H](C=O)[C@@H](O)[C@H](O)[C@H](O)CO` [STREPTOZOCIN] here?
A: NE: No evidence of hepatotoxicity in any species

Q: Which Hepatotoxicity does the source give for `Clc1ccc(CSC(Cn2ccnc2)c2ccc(Cl)cc2Cl)cc1.O=[N+]([O-])O` (stereo not drawn) [SULCONAZOLE NITRATE] here?
A: NE: No evidence of hepatotoxicity in any species

Q: How did the Hepatotoxicity turn out when `Nc1ccc(S(=O)(=O)NC(=O)c2ccccc2)cc1` [SULFABENZAMIDE] was run?
A: NE: No evidence of hepatotoxicity in any species
